# Measured values from patent publication US11680056B2, “MK2 inhibitors and uses thereof” (Xinthera, Inc., priority 2021, dated 2023).
# Columns and labels:
# [1] = target: p38a/MK2 (Homo sapiens (Human), UniProt P49137+Q16539); experiment: p38a/MK2 biochemical assay: activation of MK2 by p38, FITC-HSP27 peptide phosphorylation (IMAP FP); conditions: 10-point 1:3 dilution, top dose 1 μM; 60 pM active p38a, 1 nM inactive MK2, 10 μM ATP, 2 h incubation; read-out: p38a/MK2 (1 μM) Enzyme pIC50 (converted)
# [2] = target: p38a/PRAK (Homo sapiens (Human), UniProt Q16539); experiment: p38a/PRAK biochemical assay: activation of PRAK by p38, FITC-HSP27 peptide phosphorylation (IMAP FP); conditions: 10-point 1:3 dilution, top dose 300 μM; 60 pM active p38a, 1 nM inactive PRAK, 10 μM ATP, 2 h incubation; read-out: p38a/PRAK Enzyme pIC50 (converted)
# Method in brief: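 GST-tagged MK2 (F46–H400) and PRAK (M1–Q471), expressed in E. coli, activated by p38 and phosphorylate FITC-HSP27 peptide over 2 h with compound; readout by IMAP fluorescence polarisation (ex 485/em 528 nm). Ten-point 1:3 dilutions, top dose 1 μM for MK2 and 300 μM for PRAK. IC50 after vehicle normalisation; selectivity = IC50(PRAK)/IC50(MK2).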
# p38a/MK2, sequence (P49137 46-400): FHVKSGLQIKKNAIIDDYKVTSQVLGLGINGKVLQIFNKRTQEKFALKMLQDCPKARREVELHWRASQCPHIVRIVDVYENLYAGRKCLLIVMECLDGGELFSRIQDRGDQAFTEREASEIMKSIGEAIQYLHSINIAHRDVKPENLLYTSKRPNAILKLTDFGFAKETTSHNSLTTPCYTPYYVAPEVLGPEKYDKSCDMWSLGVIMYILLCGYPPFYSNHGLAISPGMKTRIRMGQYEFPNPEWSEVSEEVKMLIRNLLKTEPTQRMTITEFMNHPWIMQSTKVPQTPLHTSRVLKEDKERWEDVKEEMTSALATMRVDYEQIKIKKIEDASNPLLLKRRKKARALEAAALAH
# p38a/MK2, sequence (Q16539 whole entry): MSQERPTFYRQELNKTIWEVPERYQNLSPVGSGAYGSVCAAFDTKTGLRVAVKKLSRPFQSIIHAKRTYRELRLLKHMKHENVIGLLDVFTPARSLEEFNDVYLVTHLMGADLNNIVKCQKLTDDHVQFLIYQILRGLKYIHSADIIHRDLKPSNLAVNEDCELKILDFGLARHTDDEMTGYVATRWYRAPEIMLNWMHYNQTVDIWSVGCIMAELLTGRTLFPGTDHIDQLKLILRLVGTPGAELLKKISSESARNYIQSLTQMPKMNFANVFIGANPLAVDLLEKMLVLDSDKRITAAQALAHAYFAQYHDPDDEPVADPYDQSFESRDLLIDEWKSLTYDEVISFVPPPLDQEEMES
# p38a/PRAK, sequence (Q16539 whole entry): as above
IC50 [1] [nM],IC50 [2] [nM],Compound
> 1000,> 316000,"Cc1ncc(-c2ccnc(C(C)(C)O)n2)cc1-n1c(C)cc(OCc2ncc(F)cc2F)c(Cl)c1=O (single isomer, unassigned) [Example 45A, rel-3-chloro-4-[(3,5-difluoropyridin-2-yl)methoxy]-5′-[2-(2-hydroxypropan-2-yl)pyrimidin-4-yl]-2′,6-dimethyl-[1,3′-bipyridin]-2-one]"
501,39800,"Cc1ncc(-c2ccnc(C(C)(C)O)n2)cc1-n1c(C)cc(OCc2ncc(F)cc2F)c(Cl)c1=O (single isomer, unassigned) [Example 45B, rel-3-chloro-4-[(3,5-difluoropyridin-2-yl)methoxy]-5′-[2-(2-hydroxypropan-2-yl)pyrimidin-4-yl]-2′,6-dimethyl-[1,3′-bipyridin]-2-one]"
15.8,2510,"Cc1cnc(-n2ccc(CC(C)(C)O)n2)cc1-n1c(C)cc(OCc2ncc(F)cc2F)c(Cl)c1=O (single isomer, unassigned) [Example 46A, rel-3-chloro-4-[(3,5-difluoropyridin-2-yl)methoxy]-2′-[3-(2-hydroxy-2-methylpropyl)pyrazol-1-yl]-5′,6-dimethyl-[1,4′-bipyridin]-2-one]"
> 1000,> 316000,"Cc1cnc(-n2ccc(CC(C)(C)O)n2)cc1-n1c(C)cc(OCc2ncc(F)cc2F)c(Cl)c1=O (single isomer, unassigned) [Example 46B, rel-3-chloro-4-[(3,5-difluoropyridin-2-yl)methoxy]-2′-[3-(2-hydroxy-2-methylpropyl)pyrazol-1-yl]-5′,6-dimethyl-[1,4′-bipyridin]-2-one]"
2,5010,"Cc1cnc(-n2ccc(C(C)(C)O)n2)cc1-n1c(C)cc(OCc2ncc(F)cc2Cl)c(Cl)c1=O (single isomer, unassigned) [Example 47A, rel-3-chloro-4-[(3-chloro-5-fluoropyridin-2-yl)methoxy]-2′-[3-(2-hydroxypropan-2-yl)pyrazol-1-yl]-5′,6-dimethyl-[1,4′-bipyridin]-2-one]"
> 1000,> 316000,"Cc1cnc(-n2ccc(C(C)(C)O)n2)cc1-n1c(C)cc(OCc2ncc(F)cc2Cl)c(Cl)c1=O (single isomer, unassigned) [Example 47B, rel-3-chloro-4-[(3-chloro-5-fluoropyridin-2-yl)methoxy]-2′-[3-(2-hydroxypropan-2-yl)pyrazol-1-yl]-5′,6-dimethyl-[1,4′-bipyridin]-2-one]"
5.01,2000,"Cc1cnc(-c2ccnc(CC3(O)CC3)n2)cc1-n1c(C)cc(OCc2ncc(F)cc2F)c(Cl)c1=O (single isomer, unassigned) [Example 48A, rel-3-chloro-4-[(3,5-difluoropyridin-2-yl)methoxy]-2′-{2-[(1-hydroxycyclopropyl)methyl]pyrimidin-4-yl}-5′,6-dimethyl-[1,4′-bipyridin]-2-one]"
> 1000,> 316000,"Cc1cnc(-c2ccnc(CC3(O)CC3)n2)cc1-n1c(C)cc(OCc2ncc(F)cc2F)c(Cl)c1=O (single isomer, unassigned) [Example 48B, rel-3-chloro-4-[(3,5-difluoropyridin-2-yl)methoxy]-2′-{2-[(1-hydroxycyclopropyl)methyl]pyrimidin-4-yl}-5′,6-dimethyl-[1,4′-bipyridin]-2-one]"
6.31,3160,"Cc1cnc(-c2ccnc(C(C)(C)O)n2)c(C)c1-n1c(C)cc(OCc2ncc(F)cc2F)c(Cl)c1=O (single isomer, unassigned) [Example 49A, rel-3-chloro-4-((3,5-difluoropyridin-2-yl)methoxy)-2′-(2-(2-hydroxypropan-2-yl)pyrimidin-4-yl)-3′,5′,6-trimethyl-2H-[1,4′-bipyridin]-2-one]"
> 1000,> 316000,"Cc1cnc(-c2ccnc(C(C)(C)O)n2)c(C)c1-n1c(C)cc(OCc2ncc(F)cc2F)c(Cl)c1=O (single isomer, unassigned) [Example 49B, rel-3-chloro-4-((3,5-difluoropyridin-2-yl)methoxy)-2′-(2-(2-hydroxypropan-2-yl)pyrimidin-4-yl)-3′,5′,6-trimethyl-2H-[1,4′-bipyridin]-2-one]"
12.6,10000,"Cc1cnc(-n2ccc(C(C)(C)O)n2)c(C)c1-n1c(C)cc(OCc2ncc(F)cc2F)c(Cl)c1=O (single isomer, unassigned) [Example 50A, rel-3-chloro-4-[(3,5-difluoropyridin-2-yl)methoxy]-2′-[3-(2-hydroxypropan-2-yl)pyrazol-1-yl]-3′,5′,6-trimethyl-[1,4′-bipyridin]-2-one]"

# Second part, the compound before the results:
Compound,IC50 [1] [nM],IC50 [2] [nM]
"Cc1cnc(-c2ccnc(C3(O)CCOCC3)n2)cc1-n1c(C)cc(OCc2ncc(F)cc2F)c(Cl)c1=O (single isomer, unassigned) [Example 39A, rel-3-chloro-4-((3,5-difluoropyridin-2-yl)methoxy)-2′-(2-(4-hydroxytetrahydro-2H-pyran-4-yl)pyrimidin-4-yl)-5′,6-dimethyl-2H-[1,4′-bipyridin]-2-one]",10,12600
"Cc1cnc(-c2ccnc(C3(O)CCOCC3)n2)cc1-n1c(C)cc(OCc2ncc(F)cc2F)c(Cl)c1=O (single isomer, unassigned) [Example 39B, rel-3-chloro-4-((3,5-difluoropyridin-2-yl)methoxy)-2′-(2-(4-hydroxytetrahydro-2H-pyran-4-yl)pyrimidin-4-yl)-5′,6-dimethyl-2H-[1,4′-bipyridin]-2-one]",> 1000,> 316000
"Cc1cc(OCc2ncc(F)cc2F)c(Cl)c(=O)n1-c1cc(-c2ccnc(C(C)(C)O)n2)ncc1C1CC1 (single isomer, unassigned) [Example 40A, rel-3-chloro-5′-cyclopropyl-4-[(3,5-difluoropyridin-2-yl)methoxy]-2′-[2-(2-hydroxypropan-2-yl)pyrimidin-4-yl]-6-methyl-[1,4′-bipyridin]-2-one]",126,15800
"Cc1cc(OCc2ncc(F)cc2F)c(Cl)c(=O)n1-c1cc(-c2ccnc(C(C)(C)O)n2)ncc1C1CC1 (single isomer, unassigned) [Example 40B, rel-3-chloro-5′-cyclopropyl-4-[(3,5-difluoropyridin-2-yl)methoxy]-2′-[2-(2-hydroxypropan-2-yl)pyrimidin-4-yl]-6-methyl-[1,4′-bipyridin]-2-one]",> 1000,> 316000
"Cc1cnc(-c2ccnc(C3(O)CCC3)n2)cc1-n1c(C)cc(OCc2ncc(F)cc2F)c(Cl)c1=O (single isomer, unassigned) [Example 41A, rel-3-chloro-4-[(3,5-difluoropyridin-2-yl)methoxy]-2′-[2-(1-hydroxycyclobutyl)pyrimidin-4-yl]-5′,6-dimethyl-[1,4′-bipyridin]-2-one]",5.01,3160
"Cc1cnc(-c2ccnc(C3(O)CCC3)n2)cc1-n1c(C)cc(OCc2ncc(F)cc2F)c(Cl)c1=O (single isomer, unassigned) [Example 41B, rel-3-chloro-4-[(3,5-difluoropyridin-2-yl)methoxy]-2′-[2-(1-hydroxycyclobutyl)pyrimidin-4-yl]-5′,6-dimethyl-[1,4′-bipyridin]-2-one]",> 1000,> 316000
"Cc1cnc(-c2nc(C(C)(C)O)n(C)n2)cc1-n1c(C)cc(OCc2ncc(F)cc2F)c(Cl)c1=O (single isomer, unassigned) [Example 42A, rel-3-chloro-4-[(3,5-difluoropyridin-2-yl)methoxy]-2′-[5-(2-hydroxypropan-2-yl)-1-methyl-1,2,4-triazol-3-yl]-5′,6-dimethyl-[1,4′-bipyridin]-2-one]",501,6310
"Cc1cnc(-c2nc(C(C)(C)O)n(C)n2)cc1-n1c(C)cc(OCc2ncc(F)cc2F)c(Cl)c1=O (single isomer, unassigned) [Example 42B, rel-3-chloro-4-[(3,5-difluoropyridin-2-yl)methoxy]-2′-[5-(2-hydroxypropan-2-yl)-1-methyl-1,2,4-triazol-3-yl]-5′,6-dimethyl-[1,4′-bipyridin]-2-one]",> 1000,> 316000
"Cc1cnc(-c2ccnc(N(C)CCO)n2)cc1-n1c(C)cc(OCc2ncc(F)cc2F)c(Cl)c1=O (single isomer, unassigned) [Example 43A, rel-3-chloro-4-[(3,5-difluoropyridin-2-yl)methoxy]-2′-{2-[(2-hydroxyethyl)(methyl)amino]pyrimidin-4-yl}-5′,6-dimethyl-[1,4′-bipyridin]-2-one]",12.6,2510
"Cc1cnc(-c2ccnc(N(C)CCO)n2)cc1-n1c(C)cc(OCc2ncc(F)cc2F)c(Cl)c1=O (single isomer, unassigned) [Example 43B, rel-3-chloro-4-[(3,5-difluoropyridin-2-yl)methoxy]-2′-{2-[(2-hydroxyethyl)(methyl)amino]pyrimidin-4-yl}-5′,6-dimethyl-[1,4′-bipyridin]-2-one]",> 1000,> 316000
"Cc1cnc(-n2ccc(C(=O)NC3CC3)n2)cc1-n1c(C)cc(OCc2ncc(F)cc2F)c(Cl)c1=O (single isomer, unassigned) [Example 44B, rel-1-{3-chloro-4-[(3,5-difluoropyridin-2-yl)methoxy]-5′,6-dimethyl-2-oxo-[1,4′-bipyridin]-2′-yl}-N-cyclopropylpyrazole-3-carboxamide]",> 1000,> 316000
